Measurements: patent publication US4619943A, “Neolignans of Saururus cernuus L and analogues thereof” (priority 1984, dated 1986)
“And” between values parts separate entries of the source, which are not always exact repeats. Equal entries are not always repeated.

Assays:
[1] = Potentiation of pentobarbital sleeping time; assay type: in vivo, mice; design: Sleeping Time, Treated: unit not given here
Protocol: SC-8 has the ability to potentiate the sedative activity of pentobarbital. The procedure employed is that of Turner (R. A. Turner, Screening Methods in Pharmacology, Academic Press, New York, p. 302 (1965)), in which three groups of mice were injected ip with the drug at three levels and a control group with saline. […] The sleeping time of each was measured as the interval between the loss and recovery of the righting reflex, and activity is defined as at least a 200% prolongation of sleeping time.

[2] = Antiamphetamine activity (method of Weissman et al., mice instead of rats); assay type: in vivo
Protocol: Neuroleptic drugs are said to bind to postsynaptic dopamine receptors in the brain, thereby blocking dopaminergic transmission. […] Based on this, an assay for possible neuroleptic activity was developed and is commonly used. […] 151, 339 (1966)), except that mice were used instead of rats. A comparison under the same conditions was also made of the antiamphetamine activity of a standard neuroleptic drug, haloperidol, which gave an ED50 value of 0.5 mg/Kg (Table 2).

[3] = system: southern armyworm (Spodoptera eridania); assay: Insecticidal activity against southern armyworm; assay type: in vivo; settings: both application rates, 1000 and 500 ppm, 14 days
Protocol: The present compounds were tested for insecticidal activity against cabbage looper (Trichoplusia ni [Hubner]), and southern armyworm (Spodoptera eridania) at application rates of 1000 and 500 ppm. The tests were conducted in petri dishes containing a solid food source in which the test compounds had been incorporated. The petri dishes containing the treated food source were infested with second instar larvae of southern armyworms or cabbage loopers. Ten larvae per replicate and two replicates per test rate were used. Mortality data were taken 14 days after infestation.

M. incognita = assay: Effect on nematode motility; assay type: in vivo, Meloidogyne incognita; settings: 24 hours, of 300 juveniles; for Number of Motile Nematodes, Avg.: water 233.6
Protocol: In a separate test, 300 juveniles of M. incognita were placed in a container closed with a screen of openings 17 μm and exposed to various concentrations of the test compound. After 24 hours, the number of nematodes able to migrate downward (from the inverted container) were counted. Eight replicates were run for each sample, and the results were analyzed by Duncan's

mice = assay: Neuroleptic / CNS-depressant activity in experimental animals (general statements); assay type: in vivo

Structure (SMILES): COc1ccc(C(O)C(C)Oc2ccc([C@@H]3O[C@@H](c4ccc(OC(C)C(O)c5ccc(OC)c(OC)c5)c(OC)c4)[C@@H](C)[C@@H]3C)cc2OC)cc1OC (stereo partly drawn) [SC-8, 2α,5β-bis[3-methoxy-4-{threo-3-hydroxy-3-(3,4-dimethoxyphenyl)}isopropoxyphenyl]-3α,4β-dimethyltetrahydrofuran]
- % Increase of Sleeping Time ([1]; SC-8 0.01 mg/Kg ip, pentobarbital 40 mg/Kg): 175%
- Sleeping Time, Treated ([1]; SC-8 0.01 mg/Kg ip, pentobarbital 40 mg/Kg, control 12.0): 21.0
- % Increase of Sleeping Time ([1]; SC-8 0.06 mg/Kg ip, pentobarbital 40 mg/Kg): 217%
- Sleeping Time, Treated ([1]; SC-8 0.06 mg/Kg ip, pentobarbital 40 mg/Kg, control 12.0): 26.0
- % Increase of Sleeping Time ([1]; SC-8 0.125 mg/Kg ip, pentobarbital 40 mg/Kg): 158%
- Sleeping Time, Treated ([1]; SC-8 0.125 mg/Kg ip, pentobarbital 40 mg/Kg, control 12.0): 19.0
- % Increase of Sleeping Time ([1]; SC-8 0.25 mg/Kg ip, pentobarbital 40 mg/Kg): 304%
- Sleeping Time, Treated ([1]; SC-8 0.25 mg/Kg ip, pentobarbital 40 mg/Kg, control 10.8): 32.8
- % Increase of Sleeping Time ([1]; SC-8 0.4 mg/Kg ip, pentobarbital 42 mg/Kg): 280%
- Sleeping Time, Treated ([1]; SC-8 0.4 mg/Kg ip, pentobarbital 42 mg/Kg, control 16): 44.8
- % Increase of Sleeping Time ([1]; SC-8 0.5 mg/Kg ip, pentobarbital 40 mg/Kg): 357%
- Sleeping Time, Treated ([1]; SC-8 0.5 mg/Kg ip, pentobarbital 40 mg/Kg, control 10.8): 36.6
- % Increase of Sleeping Time ([1]; SC-8 1.0 mg/Kg ip, pentobarbital 40 mg/Kg): 300%
- Sleeping Time, Treated ([1]; SC-8 1.0 mg/Kg ip, pentobarbital 40 mg/Kg, control 10.8): 32.4
- % Increase of Sleeping Time ([1]; SC-8 4.0 mg/Kg ip, pentobarbital 42 mg/Kg): 857%
- Sleeping Time, Treated ([1]; SC-8 4.0 mg/Kg ip, pentobarbital 42 mg/Kg, control 16): 140
- prolongation of pentobarbital-sleeping time (conclusion) ([1]; dose range 1.0-0.05 mg/Kg): significant prolongation
- potentiating sedatives of the pentobarbital type (summary) ([1]; summary statement, no dose): significant activity
- ED50 ([2]; Mus musculus, mice, inhibition of amphetamine-induced agitation, stereotypy, body-hydration): 0.2 mg/kg
- % Inhibition (antiamphetamine activity) ([2]; mice, dose 0.03 mg/Kg): 20%
- % Inhibition (antiamphetamine activity) ([2]; mice, dose 0.1 mg/Kg): 40%
- % Inhibition (antiamphetamine activity) ([2]; mice, dose 0.3 mg/Kg): 60%
- % Inhibition (antiamphetamine activity) ([2]; mice, dose 0.5 mg/Kg): 60%
- % Inhibition (antiamphetamine activity) ([2]; mice, dose 1.0 mg/Kg): 70%
- % Inhibition (antiamphetamine activity) ([2]; mice, dose 1.2 mg/Kg): 80%
- % Inhibition (antiamphetamine activity) ([2]; mice, dose 1.5 mg/Kg): 80%
- inhibiting hyperactivity, agitation, and other effects induced by CNS stimulants of the amphetamine class (summary) ([2]; summary statement, no dose): significant activity
- insecticidal activity, southern armyworm [3]: inactive
- Number of Motile Nematodes, single replicates (1 to 8) (M. incognita; 1 ppm): 258 and 233 and 186 and 340 and 295 and 248 and 103 and 238
- Number of Motile Nematodes, Avg. (M. incognita; 1 ppm): 237.6
- Number of Motile Nematodes, single replicates (1 to 8) (M. incognita; 5 ppm): 113 and 294 and 223 and 236 and 264 and 256 and 205 and 211
- Number of Motile Nematodes, Avg. (M. incognita; 5 ppm): 225.3
- Number of Motile Nematodes, single replicates (1 to 8) (M. incognita; 10 ppm): 188 and 170 and 174 and 263 and 204 and 214 and 228
- Number of Motile Nematodes, Avg. (M. incognita; 10 ppm): 201.4
- Number of Motile Nematodes, single replicates (1 to 8) (M. incognita; 25 ppm): 67 and 85 and 97 and 56 and 99 and 120 and 131 and 84
- Number of Motile Nematodes, Avg. (M. incognita; 25 ppm): 92.4
- Number of Motile Nematodes, single replicates (1 to 8) (M. incognita; 50 ppm): 163 and 223 and 109 and 102 and 31 and 232 and 225 and 108
- Number of Motile Nematodes, Avg. (M. incognita; 50 ppm): 149.1
- CNS-depressant activity (mice; experimental animals / mice): useful CNS-depressant activity
- neuroleptic activity (mice; mouse, in vivo): neuroleptically active
